What was measured:
transglutaminase-1 gene = assay: DNA-Array study, transglutaminase-1 gene; type: cell-based; settings: in the presence of solubilised Lipo-Phosphomalate
Source text: (§1) In addition, a DNA-Array study has shown that the transglutaminase-1 and involucrin genes are over-expressed in the network with other genes essential for the formation of the corinfied layer in the presence of solubilised Lipo-Phosphomalate.

cholesterol [1] = assay: Cholesterol in keratinocytes by HPTLC; type: cell-based, human; settings: 5 ppm, 7 days
Description: (§2) The same protocol was followed as before but a larger quantity of keratinocyes was used on this occasion because of the limits of detection of the apparatus. After 7 days, the layers were rinsed, lipids extracted using solvents before being deposited on a thin-layer chromatography plate using an automated device. After migration and detection, the bands were analysed and quantified based on a range of standard lipids deposited on the same plate.

transglutaminase = assay: Transglutaminase activity in keratinocytes by enzymology (fluorescent substrate); type: cell-based, human; settings: 5 ppm, 14 days; for Enzymology % Change: vs control
Source text: At the end of the 14-day contact period, the cells were placed in contact with a fluorescent synthetic transglutaminase substrate. Metabolisation of the substrate via transglutaminase will allow the fixation in the intracellular protein matrix. After rinsing, the non fixed fluorescent substrate is eliminated and the fluorescence fixed in the cells by the enzyme is quantified.

cholesterol [2] = assay: Cholesterol in keratinocytes by immunolabelling (IMF); type: cell-based, human; settings: 5 ppm, 7 days
Description: Cultured human keratinocytes at confluence were placed in contact with the Lipo-Phosphomalate in a medium slightly enriched with calcium to promote the establishment of intercellular junctions and thus improve the anchorage of differentiated cells to the underlying cells. A negative control was carried out in the same medium. After a 7-day contact period, the layer was labeled with a cholesterol-specific fluorescent. The intensity of the labeling was analysed on the photos and compared to that obtained with the negative control (Table 6).

triglycerides = assay: Synthesis of intracellular triglycerides in 3T3-L1 cells (enzymatic method); type: cell-based
Description: 3T3-L1 cells were cultivated until sub-confluence, then induced to differentiate with the appropriate mixture with or without the Lipo-Phosphomalate at different concentrations. After 3 days of incubation, the differenciation mixture is replaced by a new maintaining culture medium, in the presence or not of the Lipo-Phosphomalate. After 3 days of incubation, the quantity of intracellular triglycerides is measured by enzymatic method.

matriptase = assay: Production of matriptase in cultured human keratinocytes by immunolabelling; type: cell-based; settings: for Matriptase Change (%): vs control
filaggrin/profilaggrin = assay: Filaggrin synthesis on human keratinocytes (immunofluorescent method); type: cell-based; settings: for Filaggrin/profilaggrin (UFA/10^6 cell.): 21 days contact; for Filaggrin/profilaggrin Change (%): vs control
Description: Protocol: Human keratinocytes were cultivated up to confluence. The cells were then placed in contact/not contact with the solubilized Lipo-Phosphomalate for 21 days. At the end of this contact period, labelling common to both filaggrin and profilaggrin was carried out on cell layers using specific antibodies. Labelling intensity was analysed on photos (n=15 photos) and compared to that obtained for the negative control and for vitamin D3 at 10^−7M used as a positive differentiation control.

melanocytes = assay: Lipid production in melanocytes; type: cell-based
Source text: (§3) This lipid production by the Lipo-Phosphomalate was not observed in fibroblasts or melanocytes. It is therefore a specific effect related to the metabolism of keratinocyte during its differentiation.

hyaluronic acid = assay: Synthesis of hyaluronic acid by human keratinocytes (ELISA); type: cell-based; settings: for hyaluronic acid ng/10^e6 cells: 3 days, supernatant
Description: Protocol: Human keratinocytes are humains were cultivated in MW24 plates for 24 h. Cells were contacted or not with the Lipo-Phosphomalate for 3 days. Culture surpernatants were taken and an assay of the quantity of hyaluronic acid was achieved. Retinoic acid was used as the positive control.

CD44 = CD44 synthesis by human keratinocytes (immunological labeling); type: cell-based; settings: 5 ppm, 22 days
Source text: Human keratinocytes were cultivitated in 35 mm box to confluence. Cells are contacted or not with the Lipo-Phosphomalate for 22 days. At the end of this contact period, the cells are fixed and an immunological labeling of the CD44 is made using specific antibodies.

involucrin gene = assay: DNA-Array study, involucrin gene; type: cell-based; settings: in the presence of solubilised Lipo-Phosphomalate
Source text: as §1

hydroxylated ceramides = assay: Hydroxylated ceramides in keratinocytes by HPTLC; type: cell-based, human; settings: 5 ppm
Description: as §2
At the same time as the HPTLC cholesterol assay, an assay of hydroxylated and non-hydroxylated ceramides was carried out on the extracts.

fibroblasts = assay: Lipid production in fibroblasts; type: cell-based
Source text: as §3

[3] = 5 ppm, listed as Solubilised Lipo-Phosphomalate
[4] = 5 ppm, listed as solubilised Lipo-Phosphomalate

## CCCCCCCCCCCCCCOC(=O)CC(OP(=O)(O)O)C(=O)O (stereo not shown) [Lipo-Phosphomalate, 2-phosphate-succinic-acid-4-tetradecyle ester]
transglutaminase-1 gene
  transglutaminase-1 gene expression (DNA-Array): over-expressed
Cholesterol [1]
  HPTLC Cholesterol (pg/10^6 cell.): 30.89 ± 7.20 pg/10^6 cell.
Cholesterol [1]; vs control
  HPTLC Cholesterol % Change: +53%; p < 0.05
transglutaminase
  Enzymology Transglutaminase (UFA/10^6 cell.): 516 ± 63 UFA/10^6 cell.
transglutaminase; listed as Solubilised Lipo-Phosphomalate
  Enzymology % Change: +124%; p < 0.01
transglutaminase; listed as solubilised Lipo-Phosphomalate
  Enzymology % Change: ~+100%
Cholesterol [2]
  IMF Cholesterol (UFA/10^6 cell.): 4.98 ± 2.59 UFA/10^6 cell.
Cholesterol [2]; vs control
  IMF Cholesterol % Change: +107%; p < 0.04
triglycerides; 10 ppm
  intracellular triglycerides % Change/control: +112%; p < 0.01
triglycerides; 15 ppm
  intracellular triglycerides % Change/control: +210%; p < 0.01
matriptase; 1.5 ppm
  Matriptase (UFA/10^6 cell.): 2.27 ± 0.47 UFA/10^6 cell.
  Matriptase Change (%): +125%; p < 0.01
matriptase; 5 ppm
  Matriptase (UFA/10^6 cell.): 4.08 ± 1.56 UFA/10^6 cell.
matriptase; [3]
  Matriptase Change (%): +304%; p < 0.01
matriptase; [4]
  Matriptase Change (%): +304%
filaggrin/profilaggrin; 1.5 ppm
  Filaggrin/profilaggrin (UFA/10^6 cell.): 3.04 ± 1.21 UFA/10^6 cell.
  Filaggrin/profilaggrin Change (%): +119%; p < 0.01
filaggrin/profilaggrin; 5 ppm
  Filaggrin/profilaggrin (UFA/10^6 cell.): 5.00 ± 1.58 UFA/10^6 cell.
filaggrin/profilaggrin; [3]
  Filaggrin/profilaggrin Change (%): +259%; p < 0.01
filaggrin/profilaggrin; [4]
  Filaggrin/profilaggrin Change (%): +259%
melanocytes
  lipid production (cholesterol, ceramides): not observed
Hyaluronic acid; 1.67 ppm
  hyaluronic acid % Change/control: +16%; p < 0.01
  hyaluronic acid ng/10^e6 cells: 1015 +/− 46 ng/10^e6 cells
Hyaluronic acid; 5 ppm
  hyaluronic acid % Change/control: +57%; p < 0.01
  hyaluronic acid ng/10^e6 cells: 1374 +/− 50 ng/10^e6 cells
Hyaluronic acid; 8.33 ppm
  hyaluronic acid % Change/control: +69%; p < 0.01
  hyaluronic acid ng/10^e6 cells: 1480 +/− 51 ng/10^e6 cells
CD44
  CD44 % Variation/control: +587%; p <
  CD44 UFA/10^6 cells: 27.20 +/− 16.5 UFA/10^6 cells
  CD44 variation/control (times): 0.01 => ×7
Involucrin gene
  involucrin gene expression (DNA-Array): over-expressed
Hydroxylated ceramides; 7 days
  Hydroxylated Ceramides (pg/10^5 cell.): 10.50 ± 1.12 pg/10^5 cell.
Hydroxylated ceramides; vs control
  Hydroxylated Ceramides Change (number of times): ×7.5
fibroblasts
  lipid production (cholesterol, ceramides): not observed

Source: patent US8603498B2, “Lipo-phosphated or lipo-sulphated compound, compositions comprising it and topical uses thereof” (Sederma, S.A.S., priority 2010, dated 2013)
